{"source": "paper PMC2948605", "about": "(Clinical cancer research : an official journal of the …, 2010)", "key": {"[1]": {"experiment": "Serum trough VPA concentration", "format": "in vivo, dog", "settings": "48 h after start of oral VPA, before fifth dose"}, "[2]": {"tested_on": "WBC and neutrophil counts", "experiment": "Complete blood counts for myelosuppression", "format": "in vivo, dog"}, "[3]": {"tested_on": "acetylated histone H3 in PBMC", "experiment": "PBMC histone H3 acetylation by immunofluorescence", "format": "in vivo, dog", "settings": "fourteen evaluable PBMC samples, data not shown"}, "[4]": {"tested_on": "human patients", "settings": "cited from earlier work"}, "[5]": {"tested_on": "canine and human osteosarcoma cells", "settings": "cited from earlier work"}, "[6]": {"tested_on": "dogs with spontaneous cancer"}, "[7]": {"experiment": "Doxorubicin and doxorubicinol pharmacokinetics in plasma by LC/MS/MS", "format": "in vivo, dog", "settings": "three dogs, highest VPA cohort (240 mg/kg/day), IV DOX"}, "[8]": {"tested_on": "treatment-naïve lymphoma", "settings": "DOX alone, treatment-naïve lymphoma in dogs; cited from earlier work"}}}
{"smiles": "CCCC(CCC)C(=O)O", "note": "[VPA, valproic acid]", "values": [{"measurement": "Trough serum VPA level reached", "setting": "[1]", "value": "up to 0.5 mM"}, {"measurement": "Myelosuppression induced by VPA", "setting": "[2]; doses up to 240 mg/kg/day, day 3 vs day 1 WBC and neutrophils", "value": "does not induce any significant myelosuppression"}, {"measurement": "Potentiation of DOX induced myelosuppression", "setting": "[2]; nadir WBC and neutrophil count day 7 post DOX vs VPA dose", "value": "no potentiation of DOX induced myelosuppression"}, {"measurement": "Correlation of fold change in PBMC histone H3 acetylation with trough VPA levels", "setting": "[3]", "value": "did not correlate"}, {"measurement": "MTD in human Phase I studies", "setting": "[4]", "value": 140, "unit": "mg/kg/day"}, {"measurement": "Effect of VPA pre-treatment on sensitivity to doxorubicin", "setting": "[5]; canine and human osteosarcoma cells", "value": "results in sensitization to doxorubicin"}, {"measurement": "VPA level capable of chemosensitization in vitro", "setting": "[5]; previous work", "value": 0.5, "unit": "mM"}, {"measurement": "Grade 3 metabolic event (ALKP > 5× ULN)", "setting": "[6]; 180/90 mg/kg cohort, patient with Stage 5 lymphoma", "value": "single Grade 3 metabolic event"}, {"measurement": "Grade 2 anorexia", "setting": "[6]; 210/105 mg/kg cohort", "value": "single Grade 2 anorexia"}, {"measurement": "Dose limiting toxicities", "setting": "[6]; dogs at 240 mg/kg/day", "value": "no dose limiting toxicities"}, {"measurement": "Tolerability", "setting": "[6]; oral VPA, all dose-escalation cohorts", "value": "well tolerated in all dose-escalation cohorts"}, {"measurement": "Maximum tolerated dose (MTD)", "setting": "[6]; oral VPA, cohorts up to 240/120 mg/kg loading/maintenance", "value": "No maximum tolerated dose (MTD) was reached"}, {"measurement": "VPA dose that can be administered prior to a standard dose of DOX", "setting": "[6]; oral divalproex for 48 h before DOX, tumor-bearing dogs", "value": "up to 240 mg/kg/day"}]}
{"smiles": "COc1cccc2c1C(=O)c1c(O)c3c(c(O)c1C2=O)C[C@@](O)([C@@H](O)CO)C[C@@H]3O[C@H]1C[C@H](N)[C@H](O)[C@H](C)O1", "note": "[doxorubicinol]", "values": [{"measurement": "PK of the major metabolite versus historical controls receiving DOX alone", "setting": "[7]", "value": "no significant changes"}]}
{"smiles": "COc1cccc2c1C(=O)c1c(O)c3c(c(O)c1C2=O)C[C@@](O)(C(=O)CO)C[C@@H]3O[C@H]1C[C@H](N)[C@H](O)[C@H](C)O1", "note": "[DOX, doxorubicin]", "values": [{"measurement": "Reported remission rates", "setting": "[8]", "value": "60-85%"}, {"measurement": "Cardiotoxicity", "setting": "[6]; VPA pre-treated dogs, not directly evaluated, cumulative DOX dose < 150 mg/m^2", "value": "did not observe any obvious cardiotoxicity"}]}
